Test results reported in patent US12435061B2 (priority 2020, dated 2025).
Values after ≈ are worked out from the molar mass of the structure shown. Read-outs that look alike come from different tables or passages of the source.

Experiments:
hTRPV3 = hTRPV3 (Homo sapiens (Human), UniProt Q8NET8); test: Whole-cell patch clamp, hTRPV3 Phase 1 / Phase 2 currents; type: cell-based
How it was run: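 Whole-cell recordings on induced TRPV3 cells replated on coverslips, held at −40 mV with 400 ms ramps from −120 to +100 mV every 5 s; currents read at −80 and +80 mV. Ringer's external solution; current activated by heating to ≥28 °C or 20 μM 2-APB.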

[1] = Aqueous solubility assay in Normal Ringer Solution; conditions: Normal Ringer Solution; for Solubility Ringer (nM): room temperature; for solubility at 40 min: saline or isotonic, kinetic from dmso stock
Experimental: Following vortex and incubation for a sufficient time (e.g. 40 minutes at room temperature), solutions were filtered, quenched with acetonitrile, and analyzed by Liquid Chromotography. Solubility Limits were determined by comparison to a standard curve.

[2] = Metabolic Stability assay, rat liver microsomes; type: in vitro ADME
Experimental: Metabolic Stability assay: The metabolic stability was determined by adding compound dissolved in DMSO to human or rat, liver microsomes. Briefly, assays were run with a starting concentration of 1 μM test article. The reaction was started by addition of NADPH regeneration components at 37° C. at which time an aliquot was immediately quenched in ice-cold acetonitrile/MeOH/H2O solution. Reaction mixture was incubated at 37° C. on a shaker, and additional aliquots were taken at 7, 15, 30 and 60 minutes. Following quench and centrifugation, samples were analyzed on HPLC/MS/MS.

[3] = Phase 1 current, inward, whole-cell patch clamp, read-out: hTRPV3 Patch P1 Inwd
[4] = Phase 1 current, read-out: hTRPV3 (nM) (Phase 1)
[5] = Phase 2 current, inward, whole-cell patch clamp, read-out: hTRPV3 Patch P2 Inwd
[6] = Phase 2 current, read-out: hTRPV3 (nM) (Phase 2)
[7] = Phase 1 current, human TRPV3, read-out: hTRPV3 (nM) Phase 1

Sequence of hTRPV3 (Q8NET8 whole entry): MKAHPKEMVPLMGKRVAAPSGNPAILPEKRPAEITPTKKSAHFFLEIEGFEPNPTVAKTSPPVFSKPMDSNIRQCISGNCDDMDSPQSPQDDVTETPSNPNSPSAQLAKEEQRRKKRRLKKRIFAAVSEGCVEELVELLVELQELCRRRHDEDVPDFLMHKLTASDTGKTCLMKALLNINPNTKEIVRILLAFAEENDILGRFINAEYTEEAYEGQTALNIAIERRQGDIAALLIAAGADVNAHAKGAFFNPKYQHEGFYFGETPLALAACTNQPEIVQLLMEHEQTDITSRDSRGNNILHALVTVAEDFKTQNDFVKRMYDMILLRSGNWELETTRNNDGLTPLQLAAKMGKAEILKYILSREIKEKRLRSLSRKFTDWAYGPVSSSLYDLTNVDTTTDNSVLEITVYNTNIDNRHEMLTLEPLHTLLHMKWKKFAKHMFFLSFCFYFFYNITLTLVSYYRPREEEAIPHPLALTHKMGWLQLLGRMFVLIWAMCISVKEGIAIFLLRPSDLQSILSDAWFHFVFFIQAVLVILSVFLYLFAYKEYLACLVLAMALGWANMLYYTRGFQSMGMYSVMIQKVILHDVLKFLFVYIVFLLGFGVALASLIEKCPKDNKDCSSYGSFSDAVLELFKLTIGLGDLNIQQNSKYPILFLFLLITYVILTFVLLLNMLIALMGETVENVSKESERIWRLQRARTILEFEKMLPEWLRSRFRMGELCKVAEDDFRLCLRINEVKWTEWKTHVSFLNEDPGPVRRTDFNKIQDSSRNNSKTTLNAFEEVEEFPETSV

Row | SMILES | IC50 (hTRPV3; [3]) [nM] | IC50 (hTRPV3; [4]) [nM] | Solubility Ringer (nM) [1] | solubility at 40 min [1] [µM] | half-life at 1 μM ([2]; read-out: LM T1/2 (min) (rat)) | IC50 (hTRPV3; [5]) [nM] | IC50 (hTRPV3; [6]) [nM] | half-life at 1 μM ([2]; read-out: LM T1/2 (min) rat) [min] | IC50 (hTRPV3; [7]) [nM]
1 | CC(C)(C)OC(=O)N1CC=C(c2ccc(N3CC[C@H](Oc4ccc(C(F)(F)F)cn4)C3)c(CO)c2)CC1 [Compound 1-272, (S)-tert-butyl 4-(3-(hydroxymethyl)-4-(3-(5-(trifluoromethyl)pyridin-2-yloxy)pyrrolidin-1-yl)phenyl)-5,6-dihydropyridine-1 (2H)-carboxylate] | > 1000 | > 3200 | BLQ |  |  |  |  |  | 
2 | CC(C)(C)OC(=O)N1CCC(c2ccc(N3CC[C@H](Oc4ccc(C(F)(F)F)cn4)C3)c(CO)c2)CC1 [Compound 1-273, (S)-tert-butyl 4-(3-(hydroxymethyl)-4-(3-(5-(trifluoromethyl)pyridin-2-yloxy)pyrrolidin-1-yl)phenyl)piperidine-1-carboxylate] | > 1000 | > 3200 | BLQ |  |  |  |  |  | 
3 | OCc1cc(-c2ccccc2)ccc1N1CC[C@H](Oc2ccccn2)C1 [Compound 1-274] | 100 to 1000 | 241 |  | ~5.5 (≈ 1.91 µg/mL) |  |  |  |  | 
4 | OCc1cc([C@H](O)c2ccccc2Cl)ccc1N1CC[C@H](Oc2ncccc2F)C1 [Compound 1-322, (2-chlorophenyl)(4-((S)-3-(3-fluoropyridin-2-yloxy)pyrrolidin-1-yl)-3-(hydroxymethyl)phenyl)methanol] | 100 to 1000 | 794 |  | > 9.3 |  |  |  |  | 
5 | CCc1cc(F)ccc1Oc1ccc(N2CC[C@H](Oc3ccccn3)C2)c(CO)c1 [Compound 1-330] | 10 to 100 | 49.5 |  |  | 24.8 | 10 to 100 | 56.6 |  | 
6 | COc1ccccc1Oc1ccc(N2CC[C@H](Oc3ncccc3C)C2)c(CO)c1 [Compound 1-340, (S)-(5-(2-methoxyphenoxy)-2-(3-(3-methylpyridin-2-yloxy)pyrrolidin-1-yl)phenyl)methanol] | 10 to 100 | 70.1 |  | ~2.4 (≈ 0.976 µg/mL) |  | 10 to 100 | 74.4 |  | 
7 | OCc1cc(Oc2ccccc2)ccc1N1CC[C@H](Nc2ncccc2Cl)C1 [Compound 1-381, (S)-(2-(3-(3-chloropyridin-2-ylamino)pyrrolidin-1-yl)-5-phenoxyphenyl)methanol] | 10 to 100 | 23.3 |  | > 1.6 |  |  |  |  | 
8 | OCc1cc(Oc2ccccc2Cl)ccc1N1CC[C@H](Nc2ncccc2Cl)C1 [Compound 1-382, (S)-(5-(2-chlorophenoxy)-2-(3-(3-chloropyridin-2-ylamino)pyrrolidin-1-yl)phenyl)methanol] | 10 to 100 | 30.9 |  | 0.5 (≈ 0.215 µg/mL) |  |  |  |  | 
9 | OCc1cc(-c2ccccc2)ccc1N1CC[C@H](Nc2nc(C(F)(F)F)cs2)C1 [Compound 1-394, (S)-(4-(3-(4-(trifluoromethyl)thiazol-2-ylamino)pyrrolidin-1-yl)biphenyl-3-yl)methanol] | 100 to 1000 | 616 |  | 1.87 (≈ 0.784 µg/mL) |  | 100 to 1000 | 496 |  | 
10 | OCc1cc(-c2ccccc2)ccc1N1CC[C@H](Oc2nc(C(F)(F)F)cs2)C1 [Compound 1-395, (S)-(4-(3-(4-(trifluoromethyl)thiazol-2-yloxy)pyrrolidin-1-yl)biphenyl-3-yl)methanol] | > 1000 | > 3200 | BLQ |  |  | > 1000 | > 3200 |  | 
11 | CC(C)c1ccccc1Oc1ccc(C2CCN(C(=O)c3ccc(Cl)cn3)C2)c(CO)c1 (centres unmarked) [Compound 2-17, (5-chloropyridin-2-yl)(3-(2-(hydroxymethyl)-4-(2-isopropylphenoxy)phenyl)pyrrolidin-1-yl)methanone] | 10 to 100 |  |  |  |  |  |  | 7.93 | 57.4
12 | Cc1ccc(C(=O)N2CCC(c3ccc(-c4ccccc4C(C)C)cc3CO)C2)nc1 (centres unmarked) [Compound 2-79] | 10 to 100 |  |  | 7.38 (≈ 3.06 µg/mL) |  |  |  |  | 19.8
13 | Cc1ccccc1Oc1ccc(C2CCN(Cc3ncccc3Cl)C2)c(CO)c1 (centres unmarked) [Compound 2-86] | 100 to 1000 |  |  | ~2.2 (≈ 0.9 µg/mL) |  |  |  |  | 226
